The values below come from ChEMBL document CHEMBL1122639, “Racemic and optically active 2,9-dimethyl-5-(m-hydroxyphenyl)morphans and pharmacological comparison with the 9-demethyl homologues” (1984).

Activity calls are given as the source filed them. The rule behind the calls is not given here.

For assay [1], the system named is Mus musculus. As to the kind of experiment: Compound was administered subcutaneously and was evaluated for opioid antagonist activity (versus morphine) by tail-flick (TF) antagonism test; I denotes Inactive at 30 mg/kg. The arrangement: dose 30 mg/kg. Format: functional, organism-based.
The test system of assay [2] is Mus musculus. As to the kind of experiment: Compound was administered subcutaneously and was evaluated for opioid agonist activity by antinociceptive p-phenylquinone-writhing (PPQ) assay in mice; I denotes Inactive at 30 mg/kg. Format: functional, organism-based. The arrangement: dose 30 mg/kg.
Assay [3] relates to Mus musculus. The assay can be described thus: Compound was administered subcutaneously and was evaluated for opioid agonist activity by antinociceptive tail-flick (TF) assay in mice; I denotes Inactive at 30 mg/kg. Format: functional, organism-based. The arrangement: dose 30 mg/kg.
For assay [4], the system named is Mus musculus. As to the kind of experiment: Compound was administered subcutaneously and was evaluated for opioid agonist activity by antinociceptive hotplate (HP) assay in mice; I denotes Inactive at 30 mg/kg. Format: functional, organism-based. The arrangement: dose 30 mg/kg.
Assay [5] relates to Mus musculus. As to the kind of experiment: Compound was administered subcutaneously and was evaluated for opioid agonist activity by antinociceptive hotplate (HP) assay in mice. It counts as functional.
For assay [6], the system named is Mus musculus. As to the kind of experiment: Compound was administered subcutaneously and was evaluated for opioid agonist activity by antinociceptive tail-flick (TF) assay in mice. It counts as functional.
The test system of assay [7] is Mus musculus. As to the kind of experiment: Compound was administered subcutaneously and was evaluated for opioid agonist activity by antinociceptive p-phenylquinone-writhing (PPQ) assay in mice. It counts as functional.
Assay [8] deals with Mus musculus. As to the kind of experiment: Compound was administered subcutaneously and was evaluated for opioid antagonist activity (versus morphine) by tail-flick (TF) antagonism test. Format: functional.
Assay [9] concerns Mus musculus. The assay can be described thus: Compound was administered subcutaneously and was evaluated for opioid antagonist activity (versus morphine) by tail-flick (TF) antagonism test. It counts as functional.
Assay [10] has as its system Mus musculus. The assay can be described thus: Compound was administered subcutaneously and was evaluated for opioid agonist activity by antinociceptive hotplate (HP) assay in mice. It counts as functional. The settings on record: sc.
Assay [11] deals with Mus musculus. The assay can be described thus: Compound was administered subcutaneously and was evaluated for opioid agonist activity by antinociceptive tail-flick (TF) assay in mice. The settings on record: sc. It counts as functional.
The test system of assay [12] is Mus musculus. The assay can be described thus: Compound was administered subcutaneously and was evaluated for opioid agonist activity by antinociceptive p-phenylquinone-writhing (PPQ) assay in mice,. Format: functional. The settings on record: sc.
The subject of assay [13] is Mus musculus. The assay can be described thus: Compound was administered subcutaneously and was evaluated for opioid agonist activity by antinociceptive hotplate (HP) assay in mice,. Format: functional. The settings on record: sc.
[14] abbreviates: Mus musculus, sc, read-out: ED50.

Turning to `COc1cccc([C@@]23CCC[C@H]([C@H]2C)N(C)CC3)c1`, the ED50 entry with Mus musculus [1], with Mus musculus [2], in the assay with Mus musculus [3] and in the assay with Mus musculus [4] was “inactive” in each case.

As to `Br.CN1CC[C@]2(c3cccc(O)c3)CCC[C@@H]1C2` (stereo in doubt; (+)), the ED50 with Mus musculus [5] stood at 0.4 mg/kg; with Mus musculus [6], 1.1 mg/kg; with Mus musculus [7] (setting [14]) it was 0.5 mg/kg.

`CN1CC[C@]2(c3cccc(O)c3)CCC[C@@H]1C2` (stereo in doubt; (+)): the AD50 entry in the assay with Mus musculus [1] was “inactive”.

As for `Br.CN1CC[C@]2(c3cccc(O)c3)CCC[C@@H]1C2` (stereo in doubt; (-)), the results for the ED50 with Mus musculus [5], with Mus musculus [6] and with Mus musculus [7] were 1.7 mg/kg, 5.4 mg/kg and 0.9 mg/kg, respectively.

As to `CN1CC[C@]2(c3cccc(O)c3)CCC[C@@H]1C2` (stereo in doubt; (-)), the AD50 result with Mus musculus [1] is “inactive”.

Take `C[C@@H]1[C@H]2CCC[C@@]1(c1cccc(O)c1)CCN2C.Cl` (stereo in doubt; form 1): the AD50 in the assay on Mus musculus [8] came to 4.5 mg/kg.

With `C[C@@H]1[C@H]2CCC[C@@]1(c1cccc(O)c1)CCN2C` (stereo in doubt; form 1), the ED50 result in the assay with Mus musculus [2], in the assay with Mus musculus [3] and in the assay with Mus musculus [4] was “inactive” each time.

With `C[C@@H]1[C@H]2CCC[C@@]1(c1cccc(O)c1)CCN2C.Cl` (stereo in doubt; form 2), the ED50 with Mus musculus [5] (setting [14]) was found to be 10 mg/kg; in the assay with Mus musculus [7] (setting [14]), 1.9 mg/kg.

Consider `C[C@@H]1[C@H]2CCC[C@@]1(c1cccc(O)c1)CCN2C` (stereo in doubt; form 2), for which the AD50 entry with Mus musculus [1] was “inactive”. In addition, in the assay with Mus musculus [3], the ED50 entry is “inactive”.

In the assay on Mus musculus [9], `C[C@@H]1[C@H]2CCC[C@@]1(c1cccc(O)c1)CCN2C.Cl` (stereo in doubt; form 3) registered an AD50 of 5 mg/kg. In addition, the median effective dose (ED50) in the assay on Mus musculus [10] came to 9.3 mg/kg.

Turning to `C[C@@H]1[C@H]2CCC[C@@]1(c1cccc(O)c1)CCN2C` (stereo in doubt; form 3), the ED50 entry in the assay with Mus musculus [2] and in the assay with Mus musculus [3] was “inactive” each time.

Consider `COc1ccc2c3c1O[C@H]1[C@@H](O)C=C[C@H]4[C@@H](C2)N(C)CC[C@@]341` [CODEINE], for which the 50% effective dose (ED50) in the assay on Mus musculus [11] was 14.5 mg/kg; in the assay on Mus musculus [12], 1.4 mg/kg; in the assay with Mus musculus [13] it was 6.8 mg/kg. Further, in the assay on Mus musculus [1], the AD50 entry is “inactive”.

As to `CN1CC[C@]23c4c5ccc(O)c4O[C@H]2[C@@H](O)C=C[C@H]3[C@H]1C5` [MORPHINE], the AD50 entry in the assay with Mus musculus [1] was “inactive”. Further, the ED50 with Mus musculus [12] was 0.2 mg/kg.

In the assay on Mus musculus [9], `C=CCN1CC[C@]23c4c5ccc(O)c4O[C@H]2[C@@H](O)C=C[C@H]3[C@H]1C5` [NALORPHINE] showed an AD50 of 2.6 mg/kg. The ED50 result with Mus musculus [3] was “inactive”. Moreover, the ED50 in the assay on Mus musculus [7] (setting [14]) amounted to 0.6 mg/kg.
